The text below walks through data of EPA's ToxRefDB 2.

Data set [1] has as its system rat. The settings on record: Prenatal developmental toxicity study, sprague dawley, Oral, Gavage/Intubation, dose end: 15 GD.
Data set [2] relates to rat. The settings on record: Prenatal developmental toxicity study, sprague dawley, Oral, Gavage/Intubation, dose end: 19 GD.
Data set [3] deals with rat. The settings on record: Multigenerational reproductive toxicity study, sprague dawley, Oral, Feed, dose end: 2 generation.
Data set [4] relates to rat. The conditions noted are these: Prenatal developmental toxicity study, long evans, Oral, Gavage/Intubation, dose end: 15 GD.
Data set [5] relates to rat. The conditions noted are these: Prenatal developmental toxicity study, sprague dawley, Oral, Gavage/Intubation, dose end: 15 GD. The source holds these as a separate data set.
In data set [6] the test system is rat. The settings on record: Prenatal developmental toxicity study, sprague dawley, Oral, Gavage/Intubation, dose end: 15 GD. This is another data set of the same source.
Setting [7] is: group: developmental, developmental / developmental malformation / bone / ossification sites + developmental / developmental malformation / bone / unossified + ….
Setting [8] is: group: maternal, systemic / in life observation / body weight / body weight gain + systemic / in life observation / clinical signs / labored respiration + ….
[9] abbreviates: group: developmental, developmental / developmental malformation / bone / unossified.
The mark [10] stands for this setting: group: maternal, reproductive / reproductive performance / postimplantation loss / postimplantation loss + reproductive / reproductive performance / ….
The mark [11] stands for this setting: group: offspring, systemic / in life observation / body weight / offspring (pup) weight gain.
Where [12] appears, read: group: parental, systemic / in life observation / body weight / body weight + systemic / in life observation / body weight / body weight gain + systemic / in….
Setting [13] is: group: reproductive, reproductive / reproductive performance / fertility / fertility + reproductive / reproductive performance / mating / mating.
Setting [14] is: group: developmental, developmental / developmental malformation / placenta / size + systemic / in life observation / body weight / fetal weight.
The mark [15] stands for this setting: group: maternal, systemic / in life observation / body weight / body weight gain.
Where [16] appears, read: group: developmental, developmental / developmental malformation / bone / incomplete ossification.
The mark [17] stands for this setting: group: maternal, systemic / in life observation / body weight / body weight gain + systemic / in life observation / food consumption / food consumption + ….
Where [18] appears, read: group: developmental, developmental / developmental malformation / bone / delayed ossification + systemic / in life observation / body weight / fetal weight.
Where [19] appears, read: group: maternal, systemic / organ weight / liver / nos + reproductive / reproductive performance / resorptions / resorptions + systemic / in life observation….

One may read the LOAEL as the lowest tested level that showed an adverse finding. Broadly, the NOAEL is the highest dose or exposure tested at which no adverse effect was seen. For the compound `O=Cc1ccccc1C=O` [1,2-Benzenedicarboxaldehyde], in data set [1] (setting [7]), the LEL came out at 40 mg/kg/day, the LOAEL was determined as 40 mg/kg/day, the NEL came to 20 mg/kg/day and the NOAEL stood at 20 mg/kg/day. Further, in data set [1] (setting [8]), the LEL was 10 mg/kg/day, the LOAEL was 10 mg/kg/day, the NEL is less than 10 mg/kg/day and the NOAEL is less than 10 mg/kg/day.

In data set [2] (setting [9]), `CC#N` [Acetonitrile] returned an LEL of 275 mg/kg/day, an LOAEL greater than 275 mg/kg/day, an NEL of 190 mg/kg/day and an NOAEL of no less than 275 mg/kg/day. Also, in data set [2] (setting [10]), the LEL is 275 mg/kg/day, the LOAEL was greater than 275 mg/kg/day, the NEL came out at 190 mg/kg/day and the NOAEL is no less than 275 mg/kg/day.

In data set [3] (setting [11]), `CC(C)(NC(=O)NCc1ccccc1Cl)c1ccccc1` [Cumyluron] yielded an LEL of 297 mg/kg/day, an LOAEL of 297 mg/kg/day, an NEL of 54 mg/kg/day and an NOAEL of 54 mg/kg/day. In data set [3] (setting [12]), the LEL was determined as 297 mg/kg/day, the LOAEL came out at 297 mg/kg/day, the NEL stood at 54 mg/kg/day and the NOAEL came out at 54 mg/kg/day. Further, in data set [3] (setting [13]), the LEL amounted to 297 mg/kg/day, the LOAEL is 297 mg/kg/day, the NEL is 54 mg/kg/day and the NOAEL stood at 54 mg/kg/day.

Take `NC1CCCCC1` [Cyclohexylamine]: in data set [4] (setting [14]), the LEL was determined as 100 mg/kg/day, the LOAEL is greater than 100 mg/kg/day, the NEL is 30 mg/kg/day and the NOAEL was no less than 100 mg/kg/day. In data set [4] (setting [15]), the LEL is 100 mg/kg/day, the LOAEL was greater than 100 mg/kg/day, the NEL worked out at 30 mg/kg/day and the NOAEL is no less than 100 mg/kg/day.

In data set [5] (setting [16]), `CCCCCCC(C)OC(=O)COc1nc(F)c(Cl)c(N)c1Cl` (configuration not stated) [Fluroxypyr-meptyl] returned an LEL greater than 600 mg/kg/day, an LOAEL greater than 600 mg/kg/day, an NEL of no less than 600 mg/kg/day and an NOAEL of no less than 600 mg/kg/day. In addition, in data set [5] (setting [17]), the LEL is 600 mg/kg/day, the lowest observed adverse effect level (LOAEL) was 600 mg/kg/day, the NEL stood at 300 mg/kg/day and the no observed adverse effect level (NOAEL) was 300 mg/kg/day.

Consider `CC1(C)OC(c2ccco2)CN1C(=O)C(Cl)Cl` (configuration not stated) [Furilazole], for which the LEL in data set [6] (setting [18]) was 175 mg/kg/day; in data set [6] (group: maternal, systemic / organ weight / liver / nos + reproductive / reproductive performance / resorptions / resorptions), 75 mg/kg/day. Besides, the LOAEL was greater than 175 mg/kg/day in data set [6] (setting [18]) and 75 mg/kg/day in data set [6] (group: maternal, systemic / organ weight / liver / nos). Also, the NEL was 75 mg/kg/day in data set [6] (setting [18]) and 10 mg/kg/day in data set [6] (setting [19]). In addition, the NOAEL is no less than 175 mg/kg/day in data set [6] (setting [18]) and 10 mg/kg/day in data set [6] (setting [19]).
